In the NIST ThermoML archive (doi:10.1021/je060271a):

Details: Liquid, Vibrating tube method

CCCCCCC(=O)OCC(COC(=O)CCCCCC)(COC(=O)CCCCCC)COC(=O)CCCCCC [pentaerythritol tetraheptanoate]
Details	mass density [kg/m3]
323.15 K, 32352 kPa	976
323.15 K, 32396 kPa	976
323.15 K, 32734 kPa	976.2
323.15 K, 32779 kPa	976.2
323.15 K, 32824 kPa	976.2
323.15 K, 32870 kPa	976.3
323.15 K, 32924 kPa	976.3
323.15 K, 32970 kPa	976.3
323.15 K, 33016 kPa	976.4
323.15 K, 33072 kPa	976.4
323.15 K, 33118 kPa	976.4
323.15 K, 33164 kPa	976.4
323.15 K, 33219 kPa	976.5
323.15 K, 33314 kPa	976.4
323.15 K, 33463 kPa	976.7
323.15 K, 33519 kPa	976.7
323.15 K, 33566 kPa	976.7
323.15 K, 33612 kPa	976.6
323.15 K, 33657 kPa	976.7
323.15 K, 33718 kPa	976.7
323.15 K, 33778 kPa	976.7
323.15 K, 33830 kPa	976.8
323.15 K, 33882 kPa	976.7
323.15 K, 33940 kPa	976.9
323.15 K, 33970 kPa	976.8
323.15 K, 34065 kPa	976.9
323.15 K, 34098 kPa	977
323.15 K, 34123 kPa	977
323.15 K, 34149 kPa	977.1
323.15 K, 34181 kPa	977
323.15 K, 34207 kPa	977.1
323.15 K, 34235 kPa	977.1
323.15 K, 34262 kPa	977.1
323.15 K, 34295 kPa	977
323.15 K, 34323 kPa	977.2
323.15 K, 34351 kPa	977.1
323.15 K, 34379 kPa	977.2
323.15 K, 34415 kPa	977.1
323.15 K, 34444 kPa	977.2
323.15 K, 34481 kPa	977.2
323.15 K, 34513 kPa	977.3
323.15 K, 34545 kPa	977.2
323.15 K, 34570 kPa	977.3
323.15 K, 34571 kPa	977.2
323.15 K, 34574 kPa	977.2
323.15 K, 34576 kPa	977.3
323.15 K, 34578 kPa	977.2
323.15 K, 34581 kPa	977.3
323.15 K, 34584 kPa	977.2
323.15 K, 34586 kPa	977.3
323.15 K, 34589 kPa	977.3
323.15 K, 34593 kPa	977.2
323.15 K, 34596 kPa	977.3
323.15 K, 34600 kPa	977.3
323.15 K, 34605 kPa	977.3
323.15 K, 34611 kPa	977.3
323.15 K, 34616 kPa	977.2
343.13 K, 13322 kPa	950.4
343.13 K, 13336 kPa	950.3
343.13 K, 13347 kPa	950.4
343.13 K, 13362 kPa	950.3
343.13 K, 13471 kPa	950.5
343.13 K, 13485 kPa	950.5
343.14 K, 13145 kPa	950
343.14 K, 13156 kPa	950.2
343.14 K, 13167 kPa	950.1
343.14 K, 13180 kPa	950.2
343.14 K, 13192 kPa	950.3
343.14 K, 13203 kPa	950.3
343.14 K, 13216 kPa	950.2
343.14 K, 13227 kPa	950.2
343.14 K, 13238 kPa	950.2
343.14 K, 13252 kPa	950.1
343.14 K, 13263 kPa	950.3
343.14 K, 13274 kPa	950.4
343.14 K, 13286 kPa	950.4
343.14 K, 13300 kPa	950.3
343.14 K, 13311 kPa	950.2
343.14 K, 13373 kPa	950.2
343.14 K, 13384 kPa	950.4
343.14 K, 13399 kPa	950.4
343.14 K, 13410 kPa	950.5
343.14 K, 13420 kPa	950.4
343.14 K, 13431 kPa	950.5
343.14 K, 13448 kPa	950.3
343.14 K, 13460 kPa	950.4
343.14 K, 13497 kPa	950.4
343.14 K, 13509 kPa	950.4
343.14 K, 13521 kPa	950.4
343.14 K, 13535 kPa	950.5
343.14 K, 13547 kPa	950.5
343.14 K, 13560 kPa	950.6
343.14 K, 13574 kPa	950.5
343.14 K, 13586 kPa	950.6
343.14 K, 13598 kPa	950.5
343.14 K, 13610 kPa	950.6
343.14 K, 13622 kPa	950.6
343.14 K, 13636 kPa	950.6
343.14 K, 13648 kPa	950.7
343.14 K, 13870 kPa	950.7
343.14 K, 13883 kPa	950.7
343.14 K, 13898 kPa	950.7
343.14 K, 13911 kPa	950.8
343.14 K, 13926 kPa	950.7
343.14 K, 13938 kPa	950.8
343.14 K, 13951 kPa	950.8
343.14 K, 13964 kPa	950.8
343.14 K, 13977 kPa	950.7
343.14 K, 13992 kPa	950.8
343.14 K, 14004 kPa	950.8
343.14 K, 14018 kPa	950.8
